Measurements reported in patent publication US4352803A, “Novel naphthyridine derivatives, intermediates thereof, processes for preparation thereof, and use thereof” (Dainippon Pharmaceutical Co., Ltd., priority 1978, dated 1982).
≈ marks a conversion by molar mass, not a printed value. Where a name gives a salt, the structure may show the parent alone. Read-outs that look alike come from different tables or passages of the source.

Columns and labels:
[1] = system: Staphylococcus aureus 209P JC-1; test: In vitro antibacterial activity (MIC), Staphylococcus aureus 209P JC-1; assay type: cell-based; conditions: Staphylococcus aureus 209P JC-1; read-out: minimum inhibitory concentration (MIC)
Excerpt: (§1) (MIC) (μg/ml) Method; Chemotherapy, 22(6), 1126 (1974)

[2] = system: Staphylococcus aureus No. 50774; test: In vitro antibacterial activity (MIC), Staphylococcus aureus No. 50774; assay type: cell-based
Excerpt: as §1

[3] = system: Streptococcus faecalis P-2473; test: In vitro antibacterial activity (MIC), Streptococcus faecalis P-2473; assay type: cell-based; conditions: Enterococcus faecalis
Excerpt: as §1

[4] = system: Streptococcus pyogenes 65A; test: In vitro antibacterial activity (MIC), Streptococcus pyogenes 65A; assay type: cell-based; conditions: read-out: minimum inhibitory concentration (MIC)
Excerpt: as §1

[5] = system: Corynebacterium pyogenes C-21; test: In vitro antibacterial activity (MIC), Corynebacterium pyogenes C-21; assay type: cell-based; conditions: Rhodococcus (subgen. Prescottella) equi, C21; Corynebacterium pyogenes C-21; read-out: minimum inhibitory concentration (MIC)
Excerpt: as §1

[6] = system: Escherichia coli NIHJ JC-2; test: In vitro antibacterial activity (MIC), Escherichia coli NIHJ JC-2; assay type: cell-based
Excerpt: as §1

Escherichia coli P-5101 [7] = test: In vitro antibacterial activity (MIC), Escherichia coli P-5101; assay type: cell-based; conditions: Escherichia coli, P5101, read-out: minimum inhibitory concentration (MIC)
Excerpt: as §1

Escherichia coli P-140a = test: In vitro antibacterial activity (MIC), Escherichia coli P-140a; assay type: cell-based; conditions: read-out: minimum inhibitory concentration (MIC)
Excerpt: as §1

[8] = system: Salmonella typhimurium 8-9; test: In vitro antibacterial activity (MIC), Salmonella typhimurium 8-9; assay type: cell-based; conditions: Salmonella enterica, read-out: minimum inhibitory concentration (MIC)
Excerpt: as §1

[9] = system: Salmonella enteritidis No. 1891; test: In vitro antibacterial activity (MIC), Salmonella enteritidis No. 1891; assay type: cell-based; conditions: Salmonella enterica, read-out: minimum inhibitory concentration (MIC)
Excerpt: as §1

Shigella flexneri 2a = test: In vitro antibacterial activity (MIC), Shigella flexneri 2a; assay type: cell-based; conditions: read-out: minimum inhibitory concentration (MIC)
Excerpt: as §1

[10] = system: Shigella flexneri 4a P-330; test: In vitro antibacterial activity (MIC), Shigella flexneri 4a P-330; assay type: cell-based; conditions: 4AP330, read-out: minimum inhibitory concentration (MIC)
Excerpt: as §1

[11] = system: Klebsiella pneumoniae No. 13; test: In vitro antibacterial activity (MIC), Klebsiella pneumoniae No. 13; assay type: cell-based
Excerpt: as §1

[12] = system: Enterobacter cloacae P-2540; test: In vitro antibacterial activity (MIC), Enterobacter cloacae P-2540; assay type: cell-based
Excerpt: as §1

[13] = system: Pseudomonas aeruginosa Tsuchijima; test: In vitro antibacterial activity (MIC), Pseudomonas aeruginosa Tsuchijima; assay type: cell-based; conditions: read-out: minimum inhibitory concentration (MIC)
Excerpt: as §1

[14] = system: Pseudomonas aeruginosa No. 12; test: In vitro antibacterial activity (MIC), Pseudomonas aeruginosa No. 12; assay type: cell-based
Excerpt: as §1

[15] = system: Serratia marcescens IFC 3736; test: In vitro antibacterial activity (MIC), Serratia marcescens IFC 3736; assay type: cell-based
Excerpt: as §1

Proteus morganii Kono = test: In vitro antibacterial activity (MIC), Proteus morganii Kono; assay type: cell-based; conditions: Morganella morganii, read-out: minimum inhibitory concentration (MIC)
Excerpt: as §1

Proteus mirabilis P-2381 = test: In vitro antibacterial activity (MIC), Proteus mirabilis P-2381; assay type: cell-based
Excerpt: as §1

in vivo = conditions: mouse, in vivo, po
Procedure: The number of dead mice was counted after 7 days, and the value of median lethal dose (LD50, mg/kg) was calculated in accordance with the Behrens-Kaerber method.

Escherichia coli P-5101 [16] = test: in vivo efficacy against systemic infection in mice, Escherichia coli P-5101; conditions: P5101, in Mus musculus, po, 168 h
Procedure: Male mice (ddY) weighing about 20 g
Intraperitoneal infection with (about
9 × 10^6 cells/mouse) of a bacterial
(§2) suspension in trypto-soy broth with 4% mucin.
(§3) Twice, about 5 minutes and 6 hours after infection.

[17] = system: Pseudomonas aeruginosa No. 12; test: in vivo efficacy against systemic infection in mice, Pseudomonas aeruginosa No. 12; conditions: NO.12, in Mus musculus, po, 168 h
Procedure: Male mice (ddY) weighing about 20 g
(3) Pseudomonas aeruginosa No. 12;
(about 5 × 10^3 cells/mouse) of a bacterial
as §2, §3
The numerals in the table show ED50 (mg/kg). ED50 values were

[18] = system: Staphylococcus aureus No. 50774; test: in vivo efficacy against systemic infection in mice, Staphylococcus aureus No. 50774; conditions: NO.50774, in Mus musculus, po, 336 h
Procedure: Male mice (ddY) weighing about 20 g
Intravenous infection with (about
5 × 10^8 cells/mouse) of a bacterial
as §3

[19] = system: Gram-positive and Gram-negative bacteria; test: in vivo therapeutic efficacy against systemic infections in mice (overall); parameters: species or system mice (ddY); conditions: Gram-negative, particularly Pseudomonas aeruginosa
[20] = Staphylococcus aureus No. 50774, read-out: minimum inhibitory concentration (MIC)
[21] = P2473, Streptococcus faecalis P-2473, read-out: minimum inhibitory concentration (MIC)
[22] = Salmonella enteritidis No. 1891
[23] = P2540, Enterobacter cloacae P-2540, read-out: minimum inhibitory concentration (MIC)
[24] = Pseudomonas aeruginosa Tsuchijima
[25] = Pseudomonas aeruginosa No. 12, read-out: minimum inhibitory concentration (MIC)
[26] = Serratia marcescens, IFC3736, read-out: minimum inhibitory concentration (MIC)
[27] = P2381, Proteus mirabilis P-2381, read-out: minimum inhibitory concentration (MIC)
[28] = Escherichia coli, NIHJJC2, read-out: minimum inhibitory concentration (MIC)
[29] = Klebsiella pneumoniae No. 13, read-out: minimum inhibitory concentration (MIC)
[30] = IFC3736, Serratia marcescens IFC 3736, read-out: minimum inhibitory concentration (MIC)
[31] = Proteus mirabilis, P2381, read-out: minimum inhibitory concentration (MIC)

SMILES | MIC [1] | MIC [2, 20] | MIC [3, 21] | MIC ([4]; Streptococcus pyogenes 65A) | MIC [5] | MIC (Escherichia coli P-5101 [7]) | MIC (Escherichia coli P-140a; Escherichia coli) | MIC ([8]; Salmonella typhimurium 8-9) | MIC [9, 22] | MIC (Shigella flexneri 2a) | MIC [10] | MIC [12, 23] | MIC [13, 24] | MIC [14, 25] | MIC [15, 26] | ED50 (Escherichia coli P-5101 [16]) | ED50 [17] | ED50 [18] | MIC [6, 28] | MIC [11, 29] | also measured
CCn1cc(C(=O)O)c(=O)c2cc(Cl)c(N3CCNCC3)nc21.Cl [Compound 3, 6-Chloro-1-ethyl-1,4-dihydro-4-oxo-7-(1-piperazinyl)-1,8-naphthyridine-3-carboxylic acid hydrochloride] | 3.13 µg/mL | 6.25 µg/mL | 25 µg/mL | 12.5 µg/mL | 6.25 µg/mL | 0.39 µg/mL | 0.39 µg/mL | 0.39 µg/mL | 0.39 µg/mL | 0.78 µg/mL | 1.56 µg/mL | 0.78 µg/mL | 6.25 µg/mL | 6.25 µg/mL | 1.56 µg/mL | 6.5 mg/kg | 58.6 mg/kg | ~90 mg/kg |  |  | MIC ([6]; NIHJJC2, Escherichia coli NIHJ JC-2, read-out: minimum inhibitory concentration (MIC)): 0.78 µg/mL; MIC ([11]; Klebsiella pneumoniae, NO.13, read-out: minimum inhibitory concentration (MIC)): 1.56 µg/mL; MIC (Proteus morganii Kono): 1.56 µg/mL; MIC (Proteus mirabilis P-2381; [27]): 3.13 µg/mL; LD50 at 168 h (in vivo): > 2000 mg/kg
CC1(C)S[C@@H]2[C@H](NC(=O)C(C(=O)Oc3ccc4c(c3)CCC4)c3ccccc3)C(=O)N2[C@H]1C(=O)O (stereo partly drawn) [G, α-(5-Indanyloxycarbonyl)benzylpenicillin sodium salt] | 0.39 µg/mL | 0.78 µg/mL | 50 µg/mL | 0.2 µg/mL | 3.13 µg/mL | 6.25 µg/mL |  | 0.78 µg/mL | 0.78 µg/mL | 12.5 µg/mL | 6.25 µg/mL | 3.13 µg/mL |  | 50 µg/mL |  | 100 mg/kg | 202 mg/kg | 10 to 40 mg/kg | 6.25 µg/mL | > 200 µg/mL | MIC (Escherichia coli P-140a; P140A, Escherichia coli P-140a): 50 µg/mL; MIC ([13]; Pseudomonas aeruginosa): 6.25 µg/mL; MIC [15, 30]: 3.13 µg/mL; MIC (Proteus morganii Kono; Proteus morganii Kono): 0.78 µg/mL; MIC (Proteus mirabilis P-2381; [27]): 0.78 µg/mL
CC1(C)S[C@@H]2[C@H](NC(=O)[C@H](N)c3ccccc3)C(=O)N2[C@H]1C(=O)O [H, D-α-Aminobenzylpenicillin] | 0.05 µg/mL (≈ 0.143 µM) | 0.1 µg/mL (≈ 0.286 µM) | 1.56 µg/mL (≈ 4.46 µM) | 0.025 µg/mL (≈ 0.0715 µM) | 1.56 µg/mL (≈ 4.46 µM) | 6.25 µg/mL (≈ 17.9 µM) |  | 0.39 µg/mL (≈ 1.12 µM) | 0.2 µg/mL (≈ 0.572 µM) | 3.13 µg/mL (≈ 8.96 µM) | 6.25 µg/mL (≈ 17.9 µM) | > 200 µg/mL |  |  |  | 43.5 mg/kg | > 400 mg/kg | 2.2 mg/kg | 6.25 µg/mL (≈ 17.9 µM) | 100 µg/mL (≈ 286 µM) | MIC (Escherichia coli P-140a; P140A, Escherichia coli P-140a): 200 µg/mL (≈ 572 µM); MIC ([13]; Pseudomonas aeruginosa): > 200 µg/mL; MIC ([14]; Pseudomonas aeruginosa, NO.12, read-out: minimum inhibitory concentration (MIC)): > 200 µg/mL; MIC [15, 30]: 25 µg/mL (≈ 71.5 µM); MIC (Proteus morganii Kono; Proteus morganii Kono): 100 µg/mL (≈ 286 µM); MIC (Proteus mirabilis P-2381; [31]): 3.13 µg/mL (≈ 8.96 µM); therapeutic effects in vivo against Gram-negative bacteria, relative to compounds 1, 1' and 2 [19]: clearly inferior; LD50 at 168 h (in vivo): > 5000 mg/kg
CCn1cc(C(=O)O)c(=O)c2cnc(N3CCNCC3)nc21 [F, 8-Ethyl-5,8-dihydro-5-oxo-2-(1-piperazinyl)pyrido[2,3-d] pyrimidine-6-carboxylic acid] | 12.5 µg/mL (≈ 41.2 µM) |  |  |  | 25 µg/mL (≈ 82.4 µM) | 1.56 µg/mL (≈ 5.14 µM) | 1.56 µg/mL (≈ 5.14 µM) |  |  | 3.13 µg/mL (≈ 10.3 µM) | 1.56 µg/mL (≈ 5.14 µM) |  | 12.5 µg/mL (≈ 41.2 µM) | 25 µg/mL (≈ 82.4 µM) | 3.13 µg/mL (≈ 10.3 µM) | 21.2 mg/kg | 99.5 mg/kg | 215 mg/kg | 1.56 µg/mL (≈ 5.14 µM) | 6.25 µg/mL (≈ 20.6 µM) | MIC ([2]; Staphylococcus aureus, NO.50774, read-out: minimum inhibitory concentration (MIC)): 25 µg/mL (≈ 82.4 µM); MIC ([3]; P2473, read-out: minimum inhibitory concentration (MIC)): 200 µg/mL (≈ 659 µM); MIC ([4]; Streptococcus pyogenes, 65A): 200 µg/mL (≈ 659 µM); MIC ([8]; TYPHIMURIUM): 1.56 µg/mL (≈ 5.14 µM); MIC ([9]; ENTERITIDIS): 1.56 µg/mL (≈ 5.14 µM); MIC ([12]; Enterobacter cloacae, P2540, read-out: minimum inhibitory concentration (MIC)): 1.56 µg/mL (≈ 5.14 µM); MIC (Proteus morganii Kono): 3.13 µg/mL (≈ 10.3 µM); MIC (Proteus mirabilis P-2381; [31]): 3.13 µg/mL (≈ 10.3 µM)
